The source made the active and inactive calls. How the calls were made is not given here.
Experiment: blockers of an Epstein-Barr virus protein-peptide interaction – biochemical, fluorescence polarization, dose response (AID 1419)
Conditions: cell-free protein-peptide binding, 2 h; for fold change: measured here: P channel fold over control, at 54 µM

O=C(N/N=C/c1cc(Cl)cc([N+](=O)[O-])c1O)NC12CC3CC(CC(C3)C1)C2
IC50: > 54 µM (inactive)
fold change: 0.913

CCCCCCOC(=O)C(C#N)c1nc2ccccc2nc1N1CCOCC1 (stereo not given)
IC50: 14.6 µM
fold change: 8.17

Cc1ccc2cc3c(N)c4c(C)ccc(C)c4nc3nc2c1
IC50: 0.92 µM
fold change: 6.77

COC(=O)c1c(=O)n(O)c2ccc(OC)cc2[n+]1[O-]
IC50: 4.69 µM
fold change: 2.93

O=C(N/N=C/c1ccc(F)cc1)c1cc(-c2ccco2)nc2ccccc12
IC50: 3.56 µM
fold change: 0.96

CC(C)NC(=O)c1sc2nc(-c3cccs3)cc(-c3cccs3)c2c1N
IC50: 2.1 µM
fold change: 15.4

CCOC(=O)c1c(Nc2ccccc2N)cc(C)nc1C
IC50: > 54 µM (inactive)
fold change: 0.997

CN(CCC#N)C(=O)COC(=O)c1c2c(nc3ccccc13)/C(=C/c1ccco1)CC2
IC50: 3.18 µM
fold change: 2.86

Cc1ccc(N2C(=O)[C@@H]3[C@H](C2=O)C2c4ccccc4C=CN2[C@@H]3C(=O)c2ccco2)cc1 (stereo not given in full)
IC50: 5.71 µM
fold change: 2.76

CCOc1cc(Br)c(Br)c(C=Nc2ccc(NC(C)=O)cc2)c1O
IC50: 1.93 µM
fold change: 8.05

CCOC(=O)Cn1c(=O)c(-c2cc(Br)ccc2N)nc2ccccc21
IC50: > 54 µM (inactive)
fold change: 6.44

CCOc1ccc(-c2nn(-c3ccccc3)cc2/C=C2\SC(=S)N(C3CCS(=O)(=O)C3)C2=O)cc1 (stereo not given)
IC50: 2.12 µM
fold change: 10.9

O=c1[nH]c(=O)n(Cc2ccccc2)c(O)c1/C=C1\C=Nc2ccccc21
IC50: 2.18 µM
fold change: 6.67

Cn1c(SCC(=O)Nc2ccc3nc(SCC(=O)N4CCCC4)sc3c2)nnc1-c1ccccc1
IC50: > 54 µM (inactive)
fold change: 1.08

C1=C(c2ccc(-c3ccccc3)cc2)Nc2ncnn2C1c1ccco1 (stereo not given)
IC50: < 0.42 µM
fold change: 15.5

Nc1c(C(=O)NC2CC2)sc2nc3c(c(-c4ccco4)c12)CC/C3=C/c1ccco1
IC50: 1.32 µM
fold change: 3.52

Cc1ccc(-c2cc(-c3ccco3)c(C#N)c(=O)[nH]2)cc1
IC50: > 54 µM (inactive)
fold change: 1.46

CC(=O)N/N=C/c1cc(C(C)C)cc(/C=N/NC(C)=O)c1O
IC50: 2.84 µM
fold change: 4.18

Cn1nc([N+](=O)[O-])c(C(C#N)c2nc3ccccc3n2C)c(Cl)c1=O (stereo not given)
IC50: 2.39 µM
fold change: 2.35

CC1=C/C(=C\c2ccc(Br)o2)C(=O)O1
IC50: > 54 µM (inactive)
fold change: 0.98

N#C/C(=C\C1=C(N2CCOCC2)C(=C\c2ccccc2)/CC1)C(=O)Nc1ccccc1F
IC50: 1.23 µM
fold change: 2.94

COc1cc(/C=C2\SC(=O)N(Cc3ccc(F)cc3)C2=O)cc([N+](=O)[O-])c1O
IC50: > 54 µM (inactive)
fold change: 0.843

Nc1ccc2c(c1Cl)C(=O)c1ccc(N)c(Cl)c1C2=O
IC50: 11.4 µM
fold change: 1.07

O=[N+]([O-])c1cc(/C=N\Nc2nccs2)ccc1O
IC50: 1.31 µM
fold change: 1.07

Cc1ccc(C)c(S(=O)(=O)C(C#N)c2nc3ccccc3nc2N2CCCC2)c1 (stereo not given)
IC50: 4.06 µM
fold change: 1.67

C/C(N)=C(/C#N)C(=O)CSc1nnc(Nc2ccccc2)s1
IC50: > 54 µM (inactive)
fold change: 0.95

O=C(COC(=O)c1c2c(nc3ccccc13)/C(=C/c1ccco1)CC2)NC1CCCC1
IC50: > 54 µM (inactive)
fold change: 2.02

O=C1NC(=S)/C(=C\c2ccc(-c3ccccc3Cl)o2)S1
IC50: 26.9 µM
fold change: 1.59

COc1ccc(-c2nnc(-c3cc4c(ccc5ccccc54)oc3=O)o2)cc1
IC50: 12.9 µM
fold change: 4.21

COc1ccc(CCNC(=O)COc2nsnc2N2CCOCC2)cc1OC
IC50: > 54 µM (inactive)
fold change: 1.22

CCOC(=O)/C(=C/c1ccc(N2CCC(c3ccccc3)=N2)cc1)C(C)=O
IC50: 3.78 µM
fold change: 11.8

CN(C)c1ccc(/C=N/NC(=O)c2cnc3ccccc3c2)cc1
IC50: 18.6 µM
fold change: 3.11

O=C(Nc1ccncc1)Nc1ccc(F)cc1F
IC50: > 54 µM (inactive)
fold change: 1.04

CN(C(=O)COC(=O)c1cc(-c2ccco2)nc2ccccc12)C1CCS(=O)(=O)C1 (stereo not given)
IC50: 2.91 µM
fold change: 0.9

CCOCCCn1c(=NC(=O)c2cccs2)c(C#N)cc2c(=O)n3cccc(C)c3nc21
IC50: 7.53 µM
fold change: 4.61

Cc1ccc[n+](-c2[nH]c(=O)sc2/C=N/NC(=O)c2ccccc2[O-])c1
IC50: 34.2 µM (inactive)
fold change: 1.69

CCOC(=O)c1sc2nc3c(SCCC(=O)O)cc(C(=O)c4cc(OC)ccc4O)cn3c(=O)c2c1C
IC50: > 54 µM (inactive)
fold change: 1.04

COC(=O)c1ccccc1NC(=O)Nc1ncccc1C
IC50: > 54 µM (inactive)
fold change: 0.937

Cc1cc(NS(=O)(=O)c2ccc(NC(=O)c3cc4cc(Br)ccc4oc3=O)cc2)no1
IC50: 13.7 µM
fold change: 1.15

S=C(Nc1ccc2nc(-c3ccccn3)c(-c3ccccn3)nc2c1)N1CCCCC1
IC50: > 54 µM (inactive)
fold change: 1.3

O=C(NC(NC(=S)Nc1ccc(Cl)cc1Cl)C(Cl)(Cl)Cl)c1cccc([N+](=O)[O-])c1 (stereo not given)
IC50: > 54 µM (inactive)
fold change: 0.953

O=C(NNC(=O)c1sccc1-n1cccc1)c1cccc(Cl)c1
IC50: > 54 µM (inactive)
fold change: 0.963

Cn1cc(Cl)c(C(=O)Nc2nc3ccc([N+](=O)[O-])cc3s2)n1
IC50: > 54 µM (inactive)
fold change: 0.983

COc1ccc2nc(N3CCCC(O)C3)c(C#N)cc2c1 (stereo not given)
IC50: 14.6 µM
fold change: 2.78

COc1ccc(OC)c(/C=c2\sc3nc(-c4cccs4)nn3c2=O)c1
IC50: 6.04 µM
fold change: 5.71

Fc1ccc(NCc2cccnc2)cc1F
IC50: 2.14 µM
fold change: 3.89

CC(=O)NC1C(OCCOc2ccc(Cl)cc2Cl)OC(COC(C)=O)C(OC(C)=O)C1OC(C)=O (stereo not given)
IC50: > 54 µM (inactive)
fold change: 1.04

NC(=O)c1ccc(N=Nc2c(O)c3ccccc3[nH]c2=O)cc1
IC50: 13.3 µM
fold change: 2.71

C=CCn1c(=O)/c(=C/c2cc(OC)c(OC)c(OC)c2)s/c1=C(/C#N)c1nc2ccccc2n1C
IC50: 3.5 µM
fold change: 15.9

COc1cc2c(cc1OC)-c1cc3ccc4c(c3c[n+]1CC2)OCO4
IC50: < 0.42 µM
fold change: 11.6

O=C(C1=C(O)C(=O)N(c2nccs2)C1c1ccccc1)c1cc2ccccc2o1 (stereo not given)
IC50: < 0.42 µM
fold change: 161

CC1CC=C2C(C#N)=C(N)C(C#N)(C#N)C(c3cccs3)C2C1 (stereo not given)
IC50: 12.8 µM
fold change: 2.49

CCOC(=O)c1cc2n(c1/N=C/N(C)C)-c1ccccc1C2=O
IC50: < 0.42 µM
fold change: 42.3

CCOCCCNc1nc2c(C)cccn2c(=O)c1/C=C1\SC(=S)N(C(C)CC)C1=O (stereo not given)
IC50: 13.2 µM
fold change: 6.84

O=S(=O)(Nc1ccc2c(c1)OCCO2)c1cccc2cccnc12
IC50: > 54 µM (inactive)
fold change: 0.963

O=C(ONc1ccc(N=NC(=O)c2ccccc2O)cc1)c1ccccc1
IC50: > 54 µM (inactive)
fold change: 1.09

COc1ccc(C2CC(c3ccccc3)n3nc(NC(=O)c4cccs4)nc3N2)cc1 (stereo not given)
IC50: > 54 µM (inactive)
fold change: 0.943

Cc1ccc(S(=O)(=O)c2cc3c(=O)n4ccccc4nc3n(Cc3ccco3)c2=N)cc1
IC50: > 54 µM (inactive)
fold change: 1.74

CCn1c(CSc2n[nH]c(N)n2)nc2cc(C(=O)O)ccc21
IC50: 4.18 µM
fold change: 5.1

O=C(Nc1ccc2nc3ccccc3nc2c1)c1ccccc1
IC50: 15.5 µM
fold change: 1.85

O=c1oc2cc(O)ccc2cc1-c1nc2c(s1)CCc1ccccc1-2
IC50: < 0.42 µM
fold change: 37.6

O=C(Nc1ccc(-n2cnnn2)cc1)C1CCC1
IC50: > 54 µM (inactive)
fold change: 0.983

Nn1c(Cc2ccccc2F)nnc1SCC(=O)N1CC(=O)Nc2ccccc21
IC50: > 54 µM (inactive)
fold change: 1

N#Cc1cccc(NC(=O)CSc2ccc3c4c(cccc24)C(=O)c2ccccc2-3)c1
IC50: 5.72 µM
fold change: 3.94

COc1cc(C2C(C#N)=C(N)OC3=C2C(=O)CCC3)c([N+](=O)[O-])cc1OC (stereo not given)
IC50: > 54 µM (inactive)
fold change: 1.22

COc1ccccc1NC(=O)CC(c1ccc(OC(C)C)cc1)c1ccccc1OC (stereo not given)
IC50: > 54 µM (inactive)
fold change: 0.927

CCN1CCN(CC(=O)N2N=C(c3cccs3)CC2c2ccc(OC)c(OC)c2)C(=O)C1=O (stereo not given)
IC50: > 54 µM (inactive)
fold change: 1.25

Cc1oc2cc(O)ccc2c(=O)c1-c1nncn1-c1ccccc1
IC50: 0.46 µM
fold change: 10.9

CC(=O)N/N=C/c1cc(C(C)(C)C)cc(/C=N/NC(C)=O)c1O
IC50: 4.05 µM
fold change: 3.13

Cc1nn(C)c(C)c1CN(C)C(=O)C1c2ccccc2Oc2ccccc21
IC50: 3.77 µM
fold change: 4.27

CN1CC=C2C(C#N)=C(N)C(C#N)(C#N)C(c3cccc(Cl)c3Cl)C2C1 (stereo not given)
IC50: 1.44 µM
fold change: 7.33

CCOC(=O)c1c(/N=C/c2c(O)n(-c3ccccc3F)c(=S)[nH]c2=O)sc2c1CCCC2
IC50: 2.97 µM
fold change: 29.6

CCc1cccc2cc3c(N)c(C(=O)Nc4ccc(S(=O)(=O)N5CCCC5)cc4)sc3nc12
IC50: 1.63 µM
fold change: 8.07

CCN(CC)C(=O)COC(=O)c1cc(-c2ccco2)nc2ccccc12
IC50: 28.4 µM
fold change: 1.44

CCCCC1=CC2=C(c3ccco3)C(=O)C(C)(OC(=O)c3ccc(OC)cc3)C(=O)C2=CN1Cc1ccccc1 (stereo not given)
IC50: > 54 µM (inactive)
fold change: 1.7

Cc1ccc(S(=O)(=O)Nc2ccc(N3CCN(C)CC3)nc2)cc1
IC50: 3.59 µM
fold change: 2.82

O=C1NC(=Nc2ccc(Cl)cc2)/C(=C/c2ccco2)S1
IC50: 7.25 µM
fold change: 0.667

O=C(Nc1ccc(Cl)cc1)Nc1nnc(-c2ccncc2)s1
IC50: > 54 µM (inactive)
fold change: 1.08

CCn1c(O)c(C=Nc2ccc(N3CCOCC3)cc2)c(=O)n(CC)c1=S
IC50: 4.91 µM
fold change: 36.6

O=C(C1=C(O)C(=O)N(c2ncccn2)C1c1cccs1)c1ccco1 (stereo not given)
IC50: 5.21 µM
fold change: 1.87
